Data taken from patent US20260137696A1, “Compositions Comprising an Inhibitor of Galectin-3” (University of Liverpool, priority 2023, published 2026).

Assays:
[1] = test system: ACA19+ cells; assay: Melanoma cell adhesion to HUVECs; type: cell-based; settings: human melanoma ACA19+ cells, various concentrations
Method: Adhesion of human colon cancer SW620 cells to human umbilical vein endothelial cells (HUVECs) was assessed in the absence or presence of the compounds of Formula I and Formula II (10 μM). […] (N=2, n=2);
Adhesion of human colon cancer SW620 cells to human umbilical vein endothelial cells (HUVECs) was assessed in the absence or presence of the compounds of Formula I and Formula II (10 μM).
HUVECs (1.5×10^5 cells/ml) were seeded into 96-well plates in complete EBM-2 medium and incubated at 37° C. 5% CO2 for 48-72 hours until a monolayer was formed. Monolayer integrity was confirmed by measuring trans-endothelial electrical resistance (TEER) using a Volt Ohm Meter and only monolayers with TEER reading over 800 Ω/cm^2 were used for the assay. ZsGreen- and luciferase-transfected SW620Gal3+, SW620Gal3− or ACA19+ cells (5×10^5 cells/ml) was then added to the HUVECs without or with 10 μM of the compound of Formula I or the compound of Formula II for 30-35 min at 37° C. The cells were washed twice with PBS before lysed with PLB. The cell lysates were transferred into new wells of white-walled 96-well plates and Luciferase Assay Reagent was added. The wells were mixed well and luminescence was measured using Infinite F200 Microplate reader. The experiment was performed three times, each time in triplicates.

[2] = test system: galectin-3 knockout (Gal3KO) PANC1 cells; assay: Pancreatic cancer cell adhesion to basement matrix, galectin-3 knockout; type: cell-based, human; settings: galectin-3 knockout by CRISPR/Cas9 (FIG. 16C, 16D)
Method: Nanty-six well plates were coated with 50 μl Matrigel (1:30 diluted in PBS) at 37° C. for 1 hour. Cancer cells, pre-labelled with fluorescent die DiI at 37° C. for 20 minutes, were washed twice with PBS and resuspended into 3×10^4 cells/ml in serum-free medium. The matrix-coated 96-well plates were washed twice with PBS before introduction of […] cell suspension with different concentrations of the inhibitors or PBS/DMSO (control) for 1 hour at 37° C. The plates were washed twice with PBS before three randomly selected Field of Views (FOVs) were recorded by fluorescence microscope and number of adhesion cells were quantified by Image J.
MDAMB-231 or PANC-1 cells were seeded into 6-well plate (2×10^5 cells) and cultured at 37° C. for 24 hour. Galectin-3 CRISPR Cas9 Knockout plasmid (2 μg) and galectin-3 HDR plasmid (2 μg) was mixed with Plasmid Transfection Medium (21 μl) for 5 minutes before addition to a mixture of lipofectamine STEM Transfection Reagent (STEM00001) (1 μl) and Plasmid Transfection Medium (25 μl) for 10 minutes at room temperature. The cells in the 6-well plates were washed and introduced with the Plasmid DNA/Lipofectamine STEM Transfection Reagent complex at 37° C. for 24 hours. […] Successful co-transfection of the CRISPR/Cas9 KO Plasmid and HDR Plasmid was confirmed by expression of red fluorescence protein of the cells. […]

[3] = test system: Salmonella typhimurium strain TA98; assay: Ames test (genotoxicity); type: cell-based; settings: TA98, up to 1 mM tested, with or without metabolic activation (S9)
Method: (§1) Mutagenic potential of the compound of Formula I was assessed by Ames test in two Salmonella typhimurium strains TA98 and TA100 without and with metabolic activation (S9).
(§2) Effect of the compound inhibitors on genotoxicity was determined using the Salmonella typhimurium strains of TA 98 and TA 100 in the presence and absence of metabolic activation (S9). Each test concentration included the vehicle and positive controls. Briefly, the compounds were serially diluted in 24-well plates with or without the presence metabolic activation system (S9) and was incubated for 90 min at 37° C. in 250 rpm in a orbital shaking incubator. TA98 and TA100 were then introduced to the wells for 90 min. 50 μL aliquots from each well was dispensed into 384 well plates and incubated for 48 hrs at 37° C. in an incubator before positive wells were scored.

[4] = test system: Salmonella typhimurium strain TA100; assay: Ames test (genotoxicity); type: cell-based; settings: TA100, up to 1 mM tested, with or without metabolic activation (S9)
Method: as §1, §2

[5] = test system: SW620^Gal3+ cells; assay: Tumour cell metastatic spread in mice (intravenous inoculation); type: in vivo, Balb/c nude mice; settings: 10 mg/kg/day subcutaneously
Method: (§3) The compound of Formula I effect on cancer metastasis was assessed in Balb/c nude mice. Luciferase-transfected, Galectin-3-expressing colon cancer SW620^Gal3+ and Galectin-3-suppressed SW620^Gal3− cells were inoculated to mice intravenously and the compound of Formula I was administrated subcutaneously, 10 mg/kg/day for 3 consecutive days in the first week and then once every week. Metastasis was monitored by IVIS imaging. […] The animals were sacrificed five weeks after tumour cell inoculation and the number of metastasis nodules on the surface of the animal lungs were quantified (FIG. 12B). Administration of the compound of Formula I caused 88% reduction of lung metastasis of Galectin-3-expressing SW620^Gal3+ cells but had little effect on Galectin-3-suppressed SW620^Gal3− cells;
as §3, with “for 5” for “for 3”, “first” for “first week and then once every”, “Galectin-3-suppressed SW620^Gal3 cells.” for “Galectin-3-suppressed SW620^Gal3− cells;”
(§4) Female Balb/c nude mice aged 6-7 weeks were purchased from Charles River Laboratories (Margate, UK) and maintained in specific pathogen-free conditions with a 12:12 hour light:dark cycle. All animal studies were conducted with UK Home Office and local ethics committee approval.
(§5) Thirty-two mice were randomly divided into four groups (A to D). […] Tumour number on the surface of the lungs was assessed using a dissection microscope.

[6] = test system: SW620^Gal3− cells; assay: as above; type: in vivo, Balb/c nude mice; settings: 10 mg/kg/day subcutaneously; Galectin-3-suppressed SW620^Gal3− cells
Method: as §3
as §3, with “for 5” for “for 3”, “first” for “first week and then once every”, “Galectin-3-suppressed SW620^Gal3 cells.” for “Galectin-3-suppressed SW620^Gal3− cells;”
as §4, §5

C[C@H]1COc2c(N3CCN(C)CC3)c(F)cc3c(=O)c(C(=O)NNc4cccc(N)c4)cn1c23 [Formula II]
ACA19+ cell adhesion to HUVEC [1]: dose-dependent inhibition
adhesion of Gal3KO PANC1 cells [2]: lost their inhibitory effect

C[C@H]1COc2c(N3CCN(C)CC3)c(F)cc3c(=O)c(C(=O)NNc4ccc(N)cc4)cn1c23 [Formula I]
ACA19+ cell adhesion to HUVEC [1]: dose-dependent inhibition
mutagenic activity [3]: no mutagenic activity
mutagenic activity [4]: no mutagenic activity
lung metastasis in IVIS imaging ([5]; 14 days after tumour cell inoculation): Substantially lower
reduction of lung metastasis (metastasis nodules on lung surface) ([5]; five weeks after tumour cell inoculation): 88%
effect on lung metastasis [6]: little effect
adhesion of Gal3KO PANC1 cells [2]: lost their inhibitory effect
